Results taken from patent publication US20260174766A1, “COMBINATION OF MENIN INHIBITOR(S) AND IMMUNOPROTEASOME INHIBITOR(S) FOR TREATMENT OF LEUKEMIA” (Medizinische Hochschule Hannover, priority 2022, published 2026).

Experiments:
[1] = tested on: MLL-AF9 driven leukemia; assay: MLL-AF9 driven murine leukemia, in vivo PR-957 treatment of primary recipients; design: species or system mouse
Experimental: For induction of MLL-AF9 (MA9) driven leukemia we used established retroviral MSCV-GFP-based vectors to express MA9 in hematopoietic stem- and progenitor cells (Lineage-negative, Sca1-positive, Kit-positive [LSK] cells). In detail, bone marrow (BM) of LMP7+/+ or LMP7−/− littermates was isolated following standard procedures from 6-12-weeks-old mice. Lineage-depletion was performed using Streptavidin Particles Plus-DM (BD Biosciences, Heidelberg, Germany) and a DynaMag magnet (Thermo Fisher Scientific). Lineage-depleted cells were stained with streptavidin BV421, KIT AF647 and Sca-1 FITC or PE antibodies (all antibodies were received from Biolegend, San Diego, CA, USA) and then used for cell sorting. Sorted LSK cells were pre-stimulated on RetroNectin-coated plates (Takara Bio USA, Inc., Mountain View, CA, USA) in serum-free medium (StemSpan™ SFEM, StemCell Technologies, Vancouver, Canada) supplemented with SCF, TPO, IL-3 and IL-6 (all cytokines from PeproTech, Hamburg, Germany) overnight. 20 hours after stimulation, LSK cells were infected twice (8 hours gap) by spinfection (872 g, 1.5 hours, 33° C.) with retroviral particles containing the oncogenic vectors. Cells were analyzed 48 hours after first infection for GFP-expression using flow cytometry and 7.5×10^4 GFP+ cells were injected into sublethally irradiated (7 Gy, single dose) primary recipient mice (C57BL/6J; females). For serial transplantation of leukemia, 3×10^5 whole bone marrow cells of diseased animals were transplanted into secondary C57BL/6J recipient mice (sublethal irradiation, 7 Gy, single dose). […]
To characterize the effects of LMP7/PSMB8 inhibition in more detail, differentiation following PR-957 treatment was assessed. […]

[2] = tested on: leukemic stem cell (LSC), MLL-AF9; assay: Limiting dilution assay of MLL-AF9 leukemic bone marrow cells treated ex vivo (ELDA); assay type: in vivo, mouse; details: 200 nM PR-957 ex vivo 48 hours

SMILES: COc1ccc(C[C@H](NC(=O)[C@H](C)NC(=O)CN2CCOCC2)C(=O)N[C@@H](Cc2ccccc2)C(=O)[C@]2(C)CO2)cc1 [PR-957, (2S)-3-(4-methoxyphenyl)-N-[(2S)-1-[(2S)-2-methyloxiran-2-yl]-1-oxo-3-phenylpropan-2-yl]-2-[[(2S)-2-[(2-morpholin-4-ylacetyl)amino]propanoyl]amino]propanamide]
- leukemic cells in the peripheral blood and spleen size ([1]; 6 mg/kg i.v. QD 3 weeks (5 days per week), 3 days after discontinuation, vs diluent, FIG. 2B,C): reduced compared to diluent treated controls
- abundance of leukemic cells in the bone marrow ([1]; 6 mg/kg i.v. QD 3 weeks (5 days per week), control 69.8%, FIG. 2D): 42.9%
- frequency of L-GMP populations ([1]; 6 mg/kg i.v. QD 3 weeks, diluent control 3.57+/-0.52%, p=0.0087, FIG. 2E): 2.25+/−0.8%
- reduction in LSC frequency compared to diluent treated controls [2]: more than log-fold reduction
- LSC frequency ([2]; ELDA, DMSO 1/4550, FIG. 2H,I): 1/57610
